US9512108B2, “9,9,10,10-Tetrafluoro-9,10-dihydrophenanthrene hepatitis C virus inhibitor and application thereof” (NANJING SANHOME PHARMACEUTICAL CO., LTD., priority 2013, dated 2016)
pEC50: −log10 of the molar value.

Columns and labels:
Type in all cases: cell-based
[1] = Cell viability test (CellTiter-Fluor) in HCV 1b replicon cells; conditions: human, HCV 1b replicon Huh7 cells, 3 days culture, read-out: CC50 (half cytotoxic concentration)
Procedure: (§1) Each of the compounds prepared in the above examples of the present invention was dissolved at 10 mM in DMSO, then diluted to 50 μM with DMEM complete medium, then diluted to 20 nM with complete medium containing 0.5% DMSO, and then serially diluted by 3-fold, to obtain a total of 10 concentrations.
(§2) HCV 1b replicon cells, i.e., Huh7 cell line stably transfected with HCV genotype 1b replicon, were provided by WuXi AppTec (Shanghai) Co., Ltd. Specific preparation methods of Huh7 lb replicon cell system can be found in Lohmann V, Korner F, Koch J, Herian U, Theilmann L, Bartenschlager R., Replication of subgenomic hepatitis C virus RNAs in a hepatoma cell line, Science 285 (5424): 110-113 (1999).
(§3) 1) Preparation of compounds: adding 75 μl of the compounds of the present invention at the above concentration gradient to a 96-well plate using POD810 system, with each concentration for each compound in duplicate;
(§4) 2) Preparation of cells: collecting HCV 1b replicon cells in logarithmic phase and resuspending them in DMEM complete medium, and then adding 75 μl of the cell suspension to each well of the above 96-well plate (8×10^3 cells/well); at the same time, establishing zero percent effect (ZPE) control group and hundred percent effect (HPE) control group, with ZPE group using complete culture medium containing 0.5% DMSO instead of the compound, and the HPE group merely containing DMEM medium in the wells.
(§5) 3) Cell culture: placing the 96-well plate in a 37° C., 5% CO2 incubator and culturing for 3 days.
(§6) 4) Cell viability test: after adding detection reagent for fluorescence assay of cell growth to each well and culturing the cells in a 37° C., 5% CO2 incubator for one hour, detecting the fluorescence signal values using the multimode microplate reader, with the raw data (RFU) being used for calculation of the cytotoxicity of the compounds;
(§7) 6) Data processing: processing the raw data using the following formula into the inhibition percentage of the compound against HCV replicon (Inhibition %) and the percentage of cell viability (Viability %): Inhibition %=(RLUZPE−RLUCPD)/(RLUZPE−RLUHPE)×100 Viability %=(RFUCPD−RFUHPE)/(RFUZPE−RFUHPE)×100 wherein CPD: the fluorescence signal value of the well of the compound; ZPE (zero percent effect): the fluorescence signal value of the zero percent effect control; HPE (hundred percent effect): the fluorescence signal value of the hundred percent effect control.
(§8) The Inhibition % and Viability % were introduced into GraphPad Prism software for data processing, respectively, to obtain the half effective concentration EC50 of the compound against HCV replicon and the half cytotoxic concentration CC50.

HCV genotype 1b replicon = test: Anti-HCV-1b replicon activity (luciferase, Bright-Glo); conditions: Hepatitis C virus, Huh-7, 72 h, read-out: EC50 against HCV-1b replicon
Procedure: as §1, §2, §3, §4, §5
(§9) 5) Anti-HCV replicon activity assay: adding luciferase luminescence substrate Bright-Glo to each well, and detecting luminescence signal values using the multimode microplate reader within 5 min, with the raw data (RLU) being used for calculation of the anti-HCV activities of the compounds;
as §7, §8

HCV genotype 1a replicon = test: Anti-HCV-1a replicon activity (luciferase, Bright-Glo); conditions: Hepatitis C virus, Huh-7, 72 h, read-out: EC50 against HCV-1a replicon
Procedure: as §3, §4, §5, §9, §7, §8
(§10) HCV 1a replicon cells, i.e., Huh7 cell line stably transfected with HCV genotype 1a replicon (provided by WuXi AppTec (Shanghai) Co., Ltd.) were used as the experimental cells. As described above for the HCV 1b replicon cell system, the HCV genotype 1a replicon cell systems were similarly prepared.
(§11) The anti-HCV-1a activities of the compounds of the present invention were tested according to the method for testing the anti-HCV-1b replicon activity in Experimental Example 1.

[2] = Cell viability test (CellTiter-Fluor) in HCV 1a replicon cells; conditions: human, Huh7 cells stably transfected with HCV genotype 1a replicon; HCV 1a replicon Huh7 cells, 3 days culture; read-out: CC50 (half cytotoxic concentration)
Procedure: as §6, §7, §8, §10, §11

[3] = Huh7 cells stably transfected with HCV genotype 1b replicon

Row | Structure (SMILES) | CC50 at 3 days [1] [nM] | pEC50 (HCV genotype 1b replicon) | CC50 at 3 days [1, 3] [nM] | pEC50 (HCV genotype 1a replicon) | CC50 at 3 days [2] [nM]
1 | COC(=O)N[C@H](C(=O)N1[C@@H]2CC[C@@H](C2)[C@H]1c1ncc(-c2ccc3c(c2)C(F)(F)C(F)(F)c2cc(-c4cnc([C@@H]5[C@H]6CC[C@H](C6)N5C(=O)[C@@H](NC(=O)OC)[C@@H](C)O)[nH]4)ccc2-3)[nH]1)[C@@H](C)O [Example 5, Dimethyl (2S,2′S,3R,3′R)-1,1′-((1R,1′R,3S,3′S,4S,4′S)-3,3′-(5,5′-(9,9,10,10-tetrafluoro-9,10-dihydrophenanthren-2,7-diyl)bis(1H-imidazol-5,2-diyl))bis(2-azabicyclo[2.2.1]heptan-3,2-diyl))bis(3-hydroxy-1-oxobutan-2,1-diyl)dicarbamate] | > 10 | 10.39 |  |  | 
2 | COC(=O)N[C@H](C(=O)N1[C@@H]2CC[C@@H](C2)[C@H]1c1ncc(-c2ccc3c(c2)C(F)(F)C(F)(F)c2cc(-c4cnc([C@@H]5[C@H]6CC[C@H](C6)N5C(=O)[C@@H](NC(=O)OC)C(C)C)[nH]4)ccc2-3)[nH]1)C(C)C [Example 3, Dimethyl (2S,2′S)-1,1′-((1R,1′R,3S,3′S,4S,4′S)-3,3′-(5,5′-(9,9,10,10-tetrafluoro-9,10-dihydrophenanthren-2,7-diyl)bis(1H-imidazol-5,2-diyl))bis(2-azabicyclo[2.2.1]heptan-3,2-yl))bis(3-methyl-1-oxobutan-2,1-diyl)dicarbamate] | > 10 | 10.77 |  |  | 
3 | COC(=O)N[C@H](C(=O)N1[C@@H]2CC[C@@H](C2)[C@H]1c1ncc(-c2ccc3c(c2)C(F)(F)C(F)(F)c2cc(-c4cnc([C@@H]5[C@H]6CC[C@H](C6)N5C(=O)[C@@H](NC(=O)OC)[C@@H](C)OC)[nH]4)ccc2-3)[nH]1)[C@@H](C)OC [Example 6, Dimethyl (2S,2′S,3R,3′R)-1,1′-((1R,1′R,3S,3′S,4S,4′S)-3,3′-(5,5′-(9,9,10,10-tetrafluoro-9,10-dihydrophenanthren-2,7-diyl)bis(1H-imidazol-5,2-diyl))bis(2-azabicyclo[2.2.1]heptan-3,2-diyl))bis(3-methoxy-1-oxobutan-2,1-diyl)dicarbamate] |  | 10.85 | > 10 |  | 
4 | COC(=O)N[C@H](C(=O)N1CC2(C[C@H]1c1ncc(-c3ccc4c(c3)C(F)(F)C(F)(F)c3cc(-c5ccc6nc([C@@H]7CCCN7C(=O)[C@@H](NC(=O)OC)C(C)C)[nH]c6c5)ccc3-4)[nH]1)OCCO2)C(C)C [Example 11, Methyl N-((2S)-1-((S)-2-(6-(7-((S)-2-(7-((S)-2-((methoxycarbonyl)amino)-3-methylbutanoyl)-1,4-dioxa-7-azaspiro[4.4]nonan-8-yl)-1H-imidazol-5-yl)-9,9,10,10-tetrafluoro-9,10-dihydrophenanthren-2-yl)-1H-benzo[d]imidazol-2-yl)pyrrolidin-1-yl)-3-methyl-1-oxobutan-2-yl)carbamate] |  | 11.22 | > 10 | 10.10 | > 10
5 | COC(=O)N[C@H](C(=O)N1CC2(C[C@H]1c1ncc(-c3ccc4c(c3)C(F)(F)C(F)(F)c3cc(-c5cnc([C@@H]6CC7(CN6C(=O)[C@@H](NC(=O)OC)C(C)C)OCCO7)[nH]5)ccc3-4)[nH]1)OCCO2)C(C)C [Example 17, Dimethyl ((2S,2′S)-((2S,2′S)-2,2′-(5,5′-(9,9,10,10-tetrafluoro-9,10-dihydrophenanthren-2,7-diyl)bis(1H-imidazol-5,2-diyl))bis(1,4-dioxa-7-azaspiro[4.4]nonan-7,8-diyl))bis(3-methyl-1-oxobutan-2,1-diyl))dicarbamate] |  | 11.15 | > 10 | 9.76 | > 10
6 | COC(=O)N[C@H](C(=O)N1CCC[C@H]1c1ncc(-c2ccc3c(c2)C(F)(F)C(F)(F)c2cc(-c4cnc([C@@H]5CC6(CN5C(=O)[C@@H](NC(=O)OC)C(C)C)OCCO6)[nH]4)ccc2-3)[nH]1)C(C)C [Example 14, Methyl N-((2S)-1-((S)-2-(5-(7-((S)-2-(7-((S)-2-((methoxycarbonyl)amino)-3-methylbutanoyl)-1,4-dioxa-7-azaspiro[4.4]nonan-8-yl)-1H-imidazol-5-yl)-9,9,10,10-tetrafluoro-9,10-dihydrophenanthren-2-yl)-1H-imidazol-2-yl)pyrrolidin-1-yl)-3-methyl-1-oxobutan-2-yl)carbamate] |  | 11.22 | > 10 | 9.82 | > 10
7 | COC(=O)N[C@H](C(=O)N1CCC[C@H]1c1ncc(-c2ccc3c(c2)C(F)(F)C(F)(F)c2cc(-c4cnc([C@@H]5CCCN5C(=O)[C@@H](NC(=O)OC)[C@@H](C)OC)[nH]4)ccc2-3)[nH]1)[C@@H](C)OC [Example 13] |  | 10.25 | > 10 |  | 
8 | COC(=O)N[C@H](C(=O)N1CCC[C@H]1c1ncc(-c2ccc3c(c2)C(F)(F)C(F)(F)c2cc(-c4cnc([C@@H]5CCCN5C(=O)[C@@H](NC(=O)OC)[C@@H](C)O)[nH]4)ccc2-3)[nH]1)[C@@H](C)O [Example 8, Dimethyl ((2S,2′S,3R,3′R)-((2S,2′S)-2,2′-(5,5′-(9,9,10,10-tetrafluoro-9,10-dihydrophenanthren-2,7-diyl)bis(1H-imidazol-5,2-diyl))bis(pyrrolidin-2,1-diyl))bis(3-hydroxy-1-oxobutan-2,1-diyl))dicarbamate] |  | 10.24 | > 10 |  | 
9 | COC(=O)N[C@H](C(=O)N1CCC[C@H]1c1ncc(-c2ccc3c(c2)C(F)(F)C(F)(F)c2cc(-c4cnc([C@@H]5CCCN5C(=O)[C@@H](NC(=O)OC)C(C)(C)C)[nH]4)ccc2-3)[nH]1)C(C)(C)C [Example 7, Dimethyl (2S,2′S)-1,1′-((2S,2′S)-2,2′-(5,5′-(9,9,10,10-tetrafluoro-9,10-dihydrophenanthren-2,7-diyl)bis(1H-imidazol-5,2-diyl))bis(pyrrolidin-2,1-diyl))bis(3,3-dimethyl-1-oxobutan-2,1-diyl)dicarbamate] |  | 11.20 | > 10 |  | 
10 | COC(=O)N[C@H](C(=O)N1CCCC1c1ncc(-c2ccc(-c3ccc4c(c3)C(F)(F)C(F)(F)c3cc(-c5ccc(-c6cnc([C@@H]7CCCN7C(=O)[C@@H](NC(=O)OC)C(C)(C)C)[nH]6)cc5)ccc3-4)cc2)[nH]1)C(C)(C)C (stereo partly drawn) [Example 2, dimethyl (2S,2′S)-1,1′-((2S,2′S)-2,2′-(5,5′-(4,4′-(9,9,10,10-tetrafluoro-9,10-dihydrophenanthren-2,7-diyl)bis(4,1-phenylene))bis(1H-imidazol-5,2-diyl))bis(pyrrolidin-2,1-diyl))bis(3,3-dimethyl-1-oxobutan-2,1-diyl)dicarbamate] |  | 10.77 | > 10 |  | 
11 | COC(=O)N[C@H](C(=O)N1[C@@H]2CC[C@@H](C2)[C@H]1c1ncc(-c2ccc3c(c2)C(F)(F)C(F)(F)c2cc(-c4cnc([C@@H]5[C@H]6CC[C@H](C6)N5C(=O)[C@@H](NC(=O)OC)C(C)(C)C)[nH]4)ccc2-3)[nH]1)C(C)(C)C [Example 4, Dimethyl (2S,2′S)-1,1′-((1R,1′R,3S,3′S,4S,4′S)-3,3′-(5,5′-(9,9,10,10-tetrafluoro-9,10-dihydrophenanthren-2,7-diyl)bis(1H-imidazol-5,2-diyl))bis(2-azabicyclo[2.2.1]heptan-3,2-yl))bis(3,3-dimethyl-1-oxobutan-2,1-diyl)dicarbamate] |  | 10.33 | > 10 |  | 
